From US20240307424A1, “COMPOSITION CAPABLE OF PROMOTING HAIR GROWTH, DRUG CAPABLE OF PROMOTING HAIR GROWTH, AND APPLICATION THEREOF” (GUANGXI XINHAI PHARMACEUTICAL TECHNOLOGY CO., LTD., priority 2022, published 2024)

Assays:
[1] = tested on: hair removal area on the back of mice; experiment: Hair growth on the back of mice after hair removal (photos, hair growth speed score); type: in vivo, KM mice; settings: twice a day, 2 weeks; for hair growth speed (score 0-3) of the hair removal area: high dose 2 mg/mL, compared with the model group
Source text: The experimental animals are purchased from National Institutes for Food and Drug Control with a production license No. of SCXK2017 (Jing)-0005, KM mice, male, 18-20 g. SPF grade.
Except for a normal control group, the back of all the mice in the other groups are subjected to hair removal.
The experimental animals are purchased from National Institutes for Food and Drug Control with the production license No. of SCXK2017 (Jing)-0005, KM mice, male, 18-20 g, spf grade.
Except for the normal control group, the back of all the mice in the other groups are subjected to hair removal.

[2] = tested on: hair follicles in the skin tissue of the hair removal area on the back of mice; experiment: Number of hair follicles in skin tissue of the hair removal area (HE staining); type: in vivo, KM mice; settings: twice a day, 2 weeks, compared with the model group
Source text: After the mice are sacrificed, the skin tissue of the back is fixed, is embedded with paraffin to obtain a paraffin-embedded section, is subjected to HE staining, and is counted the number of hair follicles to evaluate the effect of hair growth promotion.

[3] = Weight of mice after administration for 2 weeks
Description: Animal grouping: a blank group, a model group, a Vaseline group, a pulchinenoside B4-low dose group, a pulchinenoside B4-medium dose group, a pulchinenoside B4-high dose group, a positive drug of minoxidil liniment group, 10 mice per group, pulchinenoside B4 and minoxidil liniment in each group are dissolved with Vaseline. The mice in the Vaseline group are administered Vaseline, the low dose, and medium dose and high dose of pulchinenoside B4 are 0.5, 1, and 2 mg/mL, respectively. The mice are administered twice a day, after 2 weeks of continuous administration, the skin tissue of a hair removal area on the back of the mice in each group is taken, is fixed and is subjected to HE staining, and the number of hair follicles is counted under a microscope.
Animal grouping: a blank group, a model group, a Vaseline group, a pulchinenoside B5-low dose group, a pulchinenoside B5-medium dose group, a pulchinenoside B5-high dose group, a positive drug of minoxidil liniment group, 10 mice per group, pulchinenoside B5 and minoxidil liniment in each group are dissolved with Vaseline. […] The mice are administered twice a day, after 2 weeks of continuous administration, the skin tissue of a hair removal area on the back of the mice in each group is obtained, is fixed and is subjected to HE staining, and the number of hair follicles is counted under a microscope.

[4] = medium dose 1 mg/mL in Vaseline

C=C(C)[C@@H]1CCC2(C(=O)OC3OC(COC4O[C@H](CO)C(O[C@@H]5O[C@@H](C)[C@H](O)[C@@H](O)[C@H]5O)[C@H](O)[C@H]4O)[C@@H](O)[C@H](O)[C@H]3O)CC[C@]3(C)[C@H](CC[C@@H]4[C@@]5(C)CC[C@H](O[C@@H]6OC[C@H](O)[C@H](O)[C@H]6O[C@@H]6O[C@@H](C)[C@H](O)[C@@H](O)[C@H]6O)[C@@](C)(CO)C5CC[C@]43C)[C@@H]12 (stereo partly drawn) [pulchinenoside B4]
hair growth in the hair removal area on the back of mice (photos) ([1]; high dose 2 mg/mL in Vaseline): can promote hair growth | hair growth speed (score 0-3) of the hair removal area [1]: significantly increased | hair growth in the hair removal area on the back of mice (photos) ([1]; low dose 0.5 mg/mL in Vaseline): can promote hair growth | hair growth in the hair removal area on the back of mice (photos) [1, 4]: can promote hair growth | number of hair follicles in the skin tissue of the hair removal area ([2]; high dose 2 mg/mL): significantly increase | number of hair follicles in the skin tissue of the hair removal area ([2]; low dose 0.5 mg/mL): significantly increase | number of hair follicles in the skin tissue of the hair removal area ([2]; medium dose 1 mg/mL): significantly increase

C[C@@H]1O[C@@H](OC2[C@@H](CO)OC(OCC3OC(OC(=O)C45CCC(C)(C)C[C@@H]4[C@H]4CC[C@@H]6[C@@]7(C)CC[C@H](O[C@@H]8OC[C@H](O)[C@H](O)[C@H]8O[C@@H]8O[C@@H](C)[C@H](O)[C@@H](O)[C@H]8O)C(C)(CO)[C@@H]7CC[C@@]6(C)[C@]4(C)CC5)[C@H](O)[C@@H](O)[C@@H]3O)[C@H](O)[C@H]2O)[C@H](O)[C@H](O)[C@H]1O (stereo partly drawn) [pulchinenoside B5]
hair growth in the hair removal area on the back of mice (photos) ([1]; high dose 2 mg/mL in Vaseline): can promote hair growth | hair growth speed (score 0-3) of the hair removal area [1]: significantly increased | hair growth in the hair removal area on the back of mice (photos) ([1]; low dose 0.5 mg/mL in Vaseline): can promote hair growth | hair growth in the hair removal area on the back of mice (photos) [1, 4]: can promote hair growth | number of hair follicles in the skin tissue of the hair removal area ([2]; high dose 2 mg/mL): significantly increase | number of hair follicles in the skin tissue of the hair removal area ([2]; low dose 0.5 mg/mL): significantly increase | number of hair follicles in the skin tissue of the hair removal area ([2]; medium dose 1 mg/mL): significantly increase | effect on the weight of mice [3]: no significant effect
